According to patent EP4603105A1, “PHARMACEUTICAL COMPOSITION CONTAINING CYCLIC COMPOUND HAVING SELECTIVE KRAS INHIBITORY EFFECT AGAINST HRAS AND NRAS” (CHUGAI SEIYAKU KABUSHIKI KAISHA, priority 2022, dated 2024):
Where two headings read alike, the source gives them in different places.

How the values were obtained:
[1] = biological target: GDP-bound KRAS wild-type protein (Homo sapiens, UniProt P01116); assay: Binding to KRAS by surface plasmon resonance (SPR), dissociation constant KD
Procedure, shortened: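 Each cycle, GDP-bound biotin-Avi RAS was captured (~100–300 RU), compound concentrations were injected low to high for 75 s each at 100 µL/min, then the chip was regenerated. Buffer: HBS pH 7.4, 10 mM MgCl2, 10 µM GDP, 1 mM DTT, 4% DMSO; 30°C. KD from a 1:1 binding model.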

[2] = biological target: GDP-bound NRAS wild-type protein (Homo sapiens, UniProt P01111); assay: Binding to NRAS by surface plasmon resonance (SPR), KD and KD ratio to KRAS
Procedure, shortened: (§1)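 Biotinylated GDP-bound RAS was captured at about 100–300 RU. Running buffer: HBS pH 7.4, 10 mM MgCl2, 10 µM GDP, 1 mM DTT, 0.01% Tween 20, 4% DMSO.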

[3] = biological target: HRAS wild-type protein (Homo sapiens, UniProt P01112); assay: Binding to HRAS by surface plasmon resonance (SPR), KD and KD ratio to KRAS
Procedure, shortened: as §1

[4] = test system: human lung cancer strain NCI-H441; assay: NCI-H441 cell proliferation inhibitory activity (CellTiter-Glo, 4 days); format: cell-based; details: read-out: NCl-H441 IC50
Procedure, shortened: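 Step one: dispense the test compound in serial DMSO dilutions. Step three: add the reagent and measure […].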

[5] = ratio of KD for GDP-bound NRAS wild-type protein to KD for KRAS
[6] = ratio of KD for HRAS wild-type protein to KD for KRAS

Chain of GDP-bound KRAS wild-type protein (P01116 1-188 isoform P01116-2): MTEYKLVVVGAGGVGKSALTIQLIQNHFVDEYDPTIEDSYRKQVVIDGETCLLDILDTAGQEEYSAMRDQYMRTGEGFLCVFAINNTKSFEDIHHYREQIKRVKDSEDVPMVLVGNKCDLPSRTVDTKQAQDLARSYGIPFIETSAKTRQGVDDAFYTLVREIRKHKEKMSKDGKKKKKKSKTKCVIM
Chain of GDP-bound NRAS wild-type protein (P01111 whole entry): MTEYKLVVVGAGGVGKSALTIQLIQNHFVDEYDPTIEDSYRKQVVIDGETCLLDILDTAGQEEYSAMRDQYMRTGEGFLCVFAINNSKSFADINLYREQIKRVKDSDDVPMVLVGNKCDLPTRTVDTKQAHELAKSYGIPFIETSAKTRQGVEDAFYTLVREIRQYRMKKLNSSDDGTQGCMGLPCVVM
Chain of HRAS wild-type protein (P01112 whole entry): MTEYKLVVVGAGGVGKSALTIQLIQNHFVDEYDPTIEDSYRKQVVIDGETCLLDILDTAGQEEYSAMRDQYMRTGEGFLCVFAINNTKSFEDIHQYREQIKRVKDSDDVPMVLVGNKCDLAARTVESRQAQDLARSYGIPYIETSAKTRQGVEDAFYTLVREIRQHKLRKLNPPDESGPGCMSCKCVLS

Kd ([1]; Single Cycle Kinetics)	IC50 ([4]; NCI-H441 cells, 4 days)	Kd ([1]; 1:1 binding model)	Kd ([1]; Single Cycle Kinetics, 1:1 binding model)	IC50 ([4]; 50% proliferation inhibitory concentration, four days)	SMILES	NRAS /KRAS [2, 5]	HRAS /KRAS [3, 6]	NRAS /KRAS ([2]; ratio of KD with respect to GDP-bound NRAS wild-type protein to KD with respect to KRAS)	HRAS /KRAS ([3]; ratio of KD with respect to HRAS wild-type protein to KD with respect to KRAS)
1.8 nM	24.8 nM				CCO[C@@H]1C[C@H]2C(=O)OC3(CCC3)C(=O)N(C)[C@@H](C3CCCC3)C(=O)N(C)[C@H](C(=O)N(C)C)CC(=O)N(C)[C@@H](CC(C)C)C(=O)N[C@@H]([C@@H](C)CC)C(=O)N(C3CC3)CC(=O)N(C)[C@H]3C/C=C\CCN(C3=O)[C@@H](Cc3ccc(C(F)(F)F)cc3)C(=O)N(C)CC(=O)N[C@@H](CCc3ccc(C(F)(F)F)c(OC)c3)C(=O)N2C1 [PP3363]	A (a compound having 10 or more and less than 20 is denoted as A)	B (a compound having 3 or more and less than 10 is denoted as B)		
1.1 nM	80.4 nM				C=CC[C@H]1C(=O)N(C)[C@H](C(=O)N(C)C)CC(=O)N(C)[C@@H](CCC)C(=O)N[C@@H]([C@@H](C)CC)C(=O)N(C)CC(=O)N(C)[C@H]2C/C=C\CCN(C2=O)[C@@H](Cc2ccc(C(F)(F)F)cc2)C(=O)N(C)CC(=O)N[C@@H](CCc2ccc(C(F)(F)F)c(OC)c2)C(=O)N2C[C@H](OCC)C[C@H]2C(=O)N(C)C2(CCC2)C(=O)N1C [PP3330]	A (a compound having 10 or more and less than 20 is denoted as A)	A (a compound having 10 or more and less than 20 is denoted as A)		
	180 nM	3.9 nM			CCC[C@H]1C(=O)N[C@@H](CC(C)C)C(=O)N(C2CC2)CC(=O)N(C)[C@H]2C/C=C\CCN(C2=O)[C@@H](Cc2ccc(C)cc2)C(=O)N(C)CC(=O)N[C@@H](CCc2ccc(C(F)(F)F)c(OC)c2)C(=O)N2C[C@H](OCC)C[C@H]2C(=O)NC2(CC(C)(C)C2)C(=O)N(C)[C@@H](C2CCCC2)C(=O)N(C)[C@H](C(=O)N(C)C)CC(=O)N1C [PP2510]	A (a compound having 10 or more and less than 20 is denoted as A)	B (a compound having 3 or more and less than 10 is denoted as B)		
1.1 nM	45.5 nM				CCCN(C)C(=O)[C@@H]1CC(=O)N(C)[C@@H](CC(C)C)C(=O)N[C@@H]([C@@H](C)CC)C(=O)N2CCC[C@H]2C(=O)N(C)[C@H]2C/C=C\CCN(C2=O)[C@@H](Cc2ccc(C(F)(F)F)cc2)C(=O)N(C)CC(=O)N[C@@H](CCc2cc(F)c(C(F)(F)F)c(F)c2)C(=O)N2C[C@H](OCC)C[C@H]2C(=O)N[C@]2(C[C@H](OC)C2)C(=O)N(C)[C@@H](C2CCCC2)C(=O)N1C [PP3355]	A (a compound having 10 or more and less than 20 is denoted as A)	A (a compound having 10 or more and less than 20 is denoted as A)		
			0.56 nM	49.7 nM	CCO[C@@H]1C[C@H]2C(=O)NC3(CCC3)C(=O)N(C)[C@@H](C(CC)CC)C(=O)N(C)[C@H](C(=O)N3CCOCC3)CC(=O)N(C)[C@@H](CC(C)C)C(=O)N[C@@H]([C@@H](C)CC)C(=O)N(C)CC(=O)N(C)[C@H]3C/C=C\CCN(C3=O)[C@@H](Cc3ccc(C(F)(F)F)cc3)C(=O)N(C)CC(=O)N[C@@H](CCc3cc(F)c(C(F)(F)F)c(F)c3)C(=O)N2C1 [PP1287]			AA (a compound having 20 or more is denoted as AA)	A (a compound having 10 or more and less than 20 is denoted as A)
0.11 nM	8.1 nM				CCC[C@H]1C(=O)N[C@@H]([C@@H](C)CC)C(=O)N(C)CC(=O)N(C)[C@H]2C/C=C\CCN(C2=O)[C@@H](Cc2ccc(C(F)(F)F)cc2)C(=O)N(C)CC(=O)N[C@@H](CCc2ccc(C(F)(F)F)c(Cl)c2)C(=O)N2CC3(CC3)C[C@H]2C(=O)N(C)C2(CCC2)C(=O)N(C)[C@@H]([C@@H](C)CC)C(=O)N(C)[C@H](C(=O)N(C)C)CC(=O)N1C [PP3299]	A (a compound having 10 or more and less than 20 is denoted as A)	A (a compound having 10 or more and less than 20 is denoted as A)		
	124 nM	2.9 nM			CCC[C@H]1C(=O)N[C@@H](CC(C)C)C(=O)N(CC)CC(=O)N(C)[C@H]2C/C=C\CCN(C2=O)[C@@H](Cc2ccc(C)cc2)C(=O)N(C)CC(=O)N[C@@H](CCc2cc(F)c(C(F)(F)F)c(F)c2)C(=O)N2C[C@H](OCC)C[C@H]2C(=O)NC2(CC(C)(C)C2)C(=O)N(C)[C@@H](C2CCCC2)C(=O)N(C)[C@H](C(=O)N(C)C)CC(=O)N1C [PP2516]	A (a compound having 10 or more and less than 20 is denoted as A)	B (a compound having 3 or more and less than 10 is denoted as B)		
0.09 nM	13.6 nM				CCO[C@@H]1C[C@H]2C(=O)NC3(CC(C)(C)C3)C(=O)N(C)[C@@H](C3CCCC3)C(=O)N(C)[C@H](C(=O)N(C)CC)CC(=O)N(C)[C@@H]([C@@H](C)OC)C(=O)N[C@@H]([C@@H](C)CC)C(=O)N(C)CC(=O)N(C)[C@H]3C/C=C\CCN(C3=O)[C@@H](Cc3ccc(C)cc3)C(=O)N(C)CC(=O)N[C@@H](CCc3ccc(C(F)(F)F)c(OC)c3)C(=O)N2C1 [PP3176]	A (a compound having 10 or more and less than 20 is denoted as A)	A (a compound having 10 or more and less than 20 is denoted as A)		
0.3 nM	12.4 nM				CCO[C@@H]1C[C@H]2C(=O)NC3(CC(C)(C)C3)C(=O)N(C)[C@@H](C3CCCC3)C(=O)N(C)[C@H](C(=O)N(C)CC)CC(=O)N(C)[C@@H]([C@H](C)OC)C(=O)N[C@@H]([C@@H](C)CC)C(=O)N(C)CC(=O)N(C)[C@H]3C/C=C\CCN(C3=O)[C@@H](Cc3ccc(C)cc3)C(=O)N(C)CC(=O)N[C@@H](CCc3cc(F)c(C(F)(F)F)c(F)c3)C(=O)N2C1 [PP3226]	A (a compound having 10 or more and less than 20 is denoted as A)	B (a compound having 3 or more and less than 10 is denoted as B)		
0.21 nM	6.9 nM				CCC[C@H]1C(=O)N[C@@H]([C@@H](C)CC)C(=O)N(C2CC2)CC(=O)N(C)[C@H]2C/C=C\CCN(C2=O)[C@@H](Cc2ccc(C(F)(F)F)cc2)C(=O)N(C)CC(=O)N[C@@H](CCc2ccc(C(F)(F)F)c(Cl)c2)C(=O)N2CC[C@H](OC)[C@H]2C(=O)N(C)C2(CCC2)C(=O)N(C)[C@@H](C2CCCC2)C(=O)N(C)[C@H](C(=O)N(C)C)CC(=O)N1C [PP3288]	A (a compound having 10 or more and less than 20 is denoted as A)	A (a compound having 10 or more and less than 20 is denoted as A)		
1.1 nM	48.7 nM				CCCO[C@@H]1C[C@H]2C(=O)NC3(CC(C)(C)C3)C(=O)N(C)[C@@H](C3CCCC3)C(=O)N(C)[C@H](C(=O)N(C)CC)CC(=O)N(C)[C@@H](COCC)C(=O)N[C@@H]([C@@H](C)CC)C(=O)N3CCC[C@H]3C(=O)N(C)[C@H]3C/C=C\CCN(C3=O)[C@@H](Cc3ccc(C(F)(F)F)cc3)C(=O)N(C)CC(=O)N[C@@H](CCc3cc(F)c(C(F)(F)F)c(F)c3)C(=O)N2C1 [PP3471]	A (a compound having 10 or more and less than 20 is denoted as A)	A (a compound having 10 or more and less than 20 is denoted as A)		
0.64 nM	19.2 nM				CCC[C@H]1C(=O)N[C@@H]([C@@H](C)CC)C(=O)N(C2CC2)CC(=O)N(C)[C@H]2C/C(F)=C\CCN(C2=O)[C@@H](Cc2ccc(C(F)(F)F)cc2)C(=O)N(C)CC(=O)N[C@@H](CCc2cc(F)c(C(F)(F)F)c(F)c2)C(=O)N2C[C@H](OCC)C[C@H]2C(=O)NC2(CCC2)C(=O)N(C)[C@@H](C2CCCC2)C(=O)N(C)[C@H](C(=O)N(C)C)CC(=O)N1C [PP3518]	B (a compound having 3 or more and less than 10 is denoted as B)	B (a compound having 3 or more and less than 10 is denoted as B)		
	92.6 nM	1.6 nM			CCC[C@H]1C(=O)N[C@@H]([C@@H](C)CC)C(=O)N2CCC[C@H]2C(=O)N(C)[C@H]2C/C=C\CCN(C2=O)[C@@H](Cc2ccc(C(F)F)cc2)C(=O)N(C)CC(=O)N[C@@H](CCc2ccc(Cl)c(Cl)c2)C(=O)N2C[C@H](OC3CCC3)C[C@H]2C(=O)NC2(CC(C)(C)C2)C(=O)N(C)[C@@H](C(CC)CC)C(=O)N(C)[C@H](C(=O)N(C)C)CC(=O)N1C [PP2646]	AA (a compound having 20 or more is denoted as AA)	A (a compound having 10 or more and less than 20 is denoted as A)		
	26.9 nM	1.4 nM			CCC(CC)[C@H]1C(=O)N(C)[C@H](C(=O)N(C)C)CC(=O)N(C)[C@@H](COC)C(=O)N[C@@H]([C@@H](C)CC)C(=O)N(C)CC(=O)N(C)[C@H]2C/C=C\CCN(C2=O)[C@@H](CC2CCC(F)(F)CC2)C(=O)N(C)CC(=O)N[C@@H](CCc2cc(F)c(C(F)(F)F)c(F)c2)C(=O)N2C[C@@H](C)C[C@H]2C(=O)NC2(CC(C)(C)C2)C(=O)N1C [PP2448]	A (a compound having 10 or more and less than 20 is denoted as A)	A (a compound having 10 or more and less than 20 is denoted as A)		
0.17 nM	11.2 nM				CCC[C@H]1C(=O)N[C@@H](C2CCCC2)C(=O)N(C)CC(=O)N(C)[C@H]2C/C=C\CCN(C2=O)[C@@H](Cc2ccc(C)cc2)C(=O)N(C)CC(=O)N[C@@H](CCc2ccc(C(F)(F)F)c(OC)c2)C(=O)N2CC3(CC3)C[C@H]2C(=O)N(C)C2(CCC2)C(=O)N(C)[C@@H](C(CC)CC)C(=O)N(C)[C@H](C(=O)N(C)C)CC(=O)N1C [PP3316]	A (a compound having 10 or more and less than 20 is denoted as A)	B (a compound having 3 or more and less than 10 is denoted as B)		
